Test results from US20050096294A1, “Novel anti-coagulant” (priority 2003, published 2005).

How the values were obtained:
Type in all cases: biochemical, human
[1] = system: blood immediately after collected from a normal person; experiment: Normal blood coagulation time; details: for Normal blood coagulation time: standard control 42.5
Method: (3) Normal Blood Coagulation Time (Second):
The sulfated polysaccharide 50 μl was separately put (the concentration was adjusted so that the final concentration was a measured concentration) in advance into plastic test tubes (3.3 ml blood collected tube, manufactured by IWAKI Co., Ltd.), and each 1 ml of blood immediately after collected from a normal person was put into the test tubes containing the sulfated polysaccharide and quickly mixed, and the test tubes were repetitively inclined to measure time (second) in which the fluidity disappeared.

[2] = system: extrinsic pathway coagulation; experiment: Prothrombin time (PT); details: for PT: standard control 12.6
Description: (5) Prothrombin Time (PT):
The present method is a method for inspecting dynamics of extrinsic pathway coagulation. The present method has sensitivity to qualitative and quantitative abnormality in the factor II (prothrombin), the factor V, the factor VII, the factor X and the factor I (fibrinogen), and it is scarcely influenced by the […] and the factor VIII. First, normal (normal volunteer) blood citrate-collected (collected in a plastic test tube charged with 3.13 wt % sodium citrate of 1/10 volume) was subjected to centrifugal separation at 3000 rpm for 10 minutes to obtain supernatant plasma. The PT time was obtained by mixing plasma for inspection with a PT reagent (a mixed solution of tissue thromboplastin and calcium chloride) to measure fibrin-depositing time (second) (using an automatic measuring apparatus). The sample of the sulfated polysaccharide was added to the plasma for inspection in an addition concentration of 0.001 to 1 mg/ml, and normal plasma was used for a standard control.

[3] = system: intrinsic pathway coagulation; experiment: Activated partial thromboplastin time (APTT)
Description: (4) Activated Partial Thromboplastin Time (APTT):
The present method is a method for inspecting dynamics of intrinsic pathway coagulation. The present method has sensitivity to qualitative and quantitative abnormality in the factor XII, the factor XI, high molecular weight kininogen, prekallikrein, the factor IX, the factor VIII, the factor X, the factor V, the factor II (prothrombin) and the factor I (fibrinogen). First, normal (normal volunteer) blood citrate-collected (collected in a plastic test tube charged with 3.13 wt % sodium citrate of 1/10 volume) was subjected to centrifugal separation at 3000 rpm for 10 minutes to obtain supernatant plasma. The APTT time was obtained by mixing plasma for inspection with an APTT reagent and then measuring fibrin-depositing time (second) after adding a calcium chloride solution (using an automatic measuring apparatus). The sulfated polysaccharide was added to the plasma for inspection in an addition concentration of 0.001 to 1 mg/ml, and normal plasma was used for a standard control.

[4] = addition concentration 0.001 mg/ml in normal plasma
[5] = addition concentration 0.01 mg/ml in normal plasma
[6] = addition concentration 0.1 mg/ml in normal plasma
[7] = addition concentration 1 mg/ml in normal plasma
[8] = addition concentration 0.001 mg/ml in normal plasma, standard control 35
[9] = addition concentration 0.01 mg/ml in normal plasma, standard control 35
[10] = addition concentration 0.1 mg/ml in normal plasma, standard control 35
[11] = addition concentration 1 mg/ml in normal plasma, standard control 35 (30 in Example 1)
[12] = addition concentration 0.001 mg/ml
[13] = addition concentration 0.01 mg/ml
[14] = addition concentration 0.1 mg/ml

Substance | coagulation time of normal blood, extension (in words) ([1]; 1 mg/ml added) | PT [2, 4] [s] | PT [2, 5] [s] | PT [2, 6] [s] | PT [2, 7] [s] | APTT [3, 8] [s] | APTT [3, 9] [s] | APTT [3, 10] [s] | APTT [3, 11] [s] | Normal blood coagulation time [1, 12] [min] | Normal blood coagulation time [1, 13] [min] | Normal blood coagulation time [1, 14] [min] | Normal blood coagulation time ([1]; addition concentration 1 mg/ml) [min] | coagulation time of normal blood, extension (in words) ([1]; addition of 0.01 mg/ml) | PT time, extension (in words) ([2]; gellan sulfate added to plasma, versus sample without gellan sulfate)
gellan sulfate [compound 1, reference compound] | not observed to be extended |  |  |  |  |  |  |  |  |  |  |  |  |  | 
gellan sulfate [Example 3] |  | 11.3 | 11.8 | 19.3 | ≥ 300 | 49 | 103.5 | ≥ 300 | ≥ 300 | 58.9 | 138.8 | 216.3 | ≥ 600 |  | 
chondroitin sulfate [reference compound] |  |  |  |  |  |  |  |  |  |  |  |  |  | not observed at all to be extended | 
heparin [reference compound] |  | 13 | 13 | ≥ 300 | ≥ 300 | 50 | ≥ 300 | ≥ 300 | ≥ 300 | 105.6 | ≥ 600 | ≥ 600 | ≥ 600 |  | 
gellan sulfate [Example 4] |  | 13 | 12 | 14 | ≥ 300 | 45 | 45 | ≥ 300 | ≥ 300 | 39.9 | 72 | ≥ 600 | ≥ 600 |  | 
gellan sulfate [Example 2] |  | 11.6 | 11.7 | 15.8 | ≥ 300 | 38.1 | 30 | ≥ 300 | ≥ 300 | 54 | 93 | 230 | ≥ 600 |  | 
gellan sulfate [Example 1] |  |  |  |  |  |  |  |  | 95 |  |  |  |  |  | significant extension of the time was not observed
